Values quoted from earlier work in patent US5910307A, “Process of extracting and purifying biologically effective ingredients from combined medicinal plants and their extract composition” (priority 1996, dated 1999).

How the values were obtained:
[1] = tested on: chronic rheumatoid arthritis induced by Mycobacterium butyricum; details: literature
[2] = tested on: biosynthesis of prostacyclin; details: literature

SMILES | anti-inflammatory and analgesic effects [1] | effect on chronic rheumatoid arthritis induced by Mycobacterium butyricum [1] | biosynthesis of prostacyclin generated in the metabolism of arachidonic acid [2]
CC1(C)CC[C@]2(C(=O)O)CC[C@]3(C)C(=CC[C@@H]4[C@@]5(C)CC[C@H](O)C(C)(C)[C@@H]5CC[C@]43C)[C@@H]2C1 [oleanolic acid] | remarkable anti-inflammatory and analgesic effects | effective | –
O=C(/C=C/c1ccc(O)c(O)c1)O[C@H](Cc1ccc(O)c(O)c1)C(=O)O [rosmarinic acid] | – | – | inhibit
